Laboratory results from patent US8618046B2, “Treatment of atherosclerosis with cholesterol ester transport protein mimotopes” (Affiris AG, priority 2007, dated 2013).
Entries after “also recorded” stand apart in the source; their conditions may differ. Where no end group is shown, it is not given here.

Assays:
irrelevant peptide-BSA = assay: Titer to irrelevant peptide in sera of immunised animals (peptide ELISA); format: in vivo, mouse; settings: Table 1, mice, sera 2 weeks after 3rd injection
Experimental: (§1) Balb/c mice/30 μg Peptide, 2 injections in 2 week intervals. S3=2 weeks after 3rd injection. Alum as adjuvant. Titers against original epitope (p4073) induced by injection of mimotopes. Well coating: 50 μl of 1 μM p4073-BSA or 1 μg/ml activated KLH. Detection: αIgG:
(§2) Subcutaneous injections in the flank were performed in week 1, week 3 and week 7 with 30 μg peptide-KLH per mouse. Intradermal injections in the ear were performed in week 1, week 3 and week 6 with 10 μg peptide-KLH per mouse. Sera were taken 2 weeks after the 3rd injection. Vaccine formulation with Alum (always 1 mg per mouse): up to 250 μl, injected into one flank. The Alum formulation with 1 ml per mouse (500 μl into each flank) was in 1×PBS as buffer.
Vaccine formulation with Gerbu Adjuvant 100 (Gerbu Cat. Nr. #3100; always 50 μl adjuvant per mouse): 200 μl, 100 μl injected into each flank comprising 1×HEPES as buffer.
Female Balb/c mice, five mice per group, were subcutaneously immunized with 30 μg peptide coupled to KLH. Control groups were administered KLH or C-[…] (SEQ ID NO. 147). As adjuvant alum was used. […] The in vitro ELISA assay to determine the antibody titer was performed with pooled sera after two vaccinations in a two week interval (S2; see FIGS. 7a to 7d). The wells of the ELISA plate were coated with KLH (positive control), mimotope-BSA conjugate, C-[…] (SEQ ID NO. 147) and a irrelevant peptide-BSA conjugate (negative control). The detection was performed with anti-mouse IgG.

[1] = test system: monoclonal antibody “Frida”; assay: In vitro inhibition (competition) ELISA with mAb Frida on coated original CETP epitope; format: binding, mouse; settings: for inhibition in in vitro competition ELISA, mAb “Frida” (in words): monoclonal antibodies “Frida” and, where stated, “James”; for inhibition ELISA signal, first value column / inhibition ELISA signal, second value column: FIG. 18b, column without head; for inhibition ELISA signal, first value column / inhibition ELISA signal, second value column / inhibition ELISA signal, high / inhibition ELISA signal, low: detection αIgG1; for inhibition ELISA signal, high / inhibition ELISA signal, low: 2.5 ng mAb Frida; for inhibition ELISA signal, high: high peptide amount; for inhibition ELISA signal, low: low peptide amount
Experimental: Different amounts of peptides (2 and 20 μg, as indicated in the respective figures) derived from Phage Display were incubated with the monoclonal antibody that was used for the screening procedure. Peptides diminishing subsequent binding of the antibody to the original CETP epitope (C-terminal 16 amino acids of CETP protein) coated on ELISA plates were considered as inhibiting. (Results see i.a. FIGS. 19a to 19c)

original epitope (p4073) = assay: Titer to the original CETP epitope in sera of immunised animals (peptide ELISA); format: in vivo, mouse; settings: coupled to KLH; mice and rabbits
Experimental: as §1
Inhibiting as well as some non-inhibiting peptides were coupled to KLH and injected into mice (wildtype or CETP-transgenic mice; subcutaneously into the flank or intra-dermaly into the ears) or rabbits (subcutaneously into the flank) together with an appropriate adjuvant (aluminium hydroxide and Gerbu 100 for mice and aluminium hydroxide or CFA/IFA for rabbits).
Titers to injected peptides as well as to the original CETP epitope were determined. In addition, for selected sera also immune response to CETP protein was measured (Results see FIGS. 7a to 7d and FIGS. 19a to 19e).
as §2
Vaccine formulation with Gerbu Adjuvant 100 (Gerbu Cat. Nr. #3100; always 50 μl adjuvant per mouse): 200 μl, 100 μl injected into each flank comprising 1×HEPES as buffer. […]

[2] = FIG. 18a, coat 1 μM 4073 peptide

## p4228-KLH: P12-21; C-RMFPESFLDTLW coupled to KLH (CRMFPESFLDTLW; also: coupled to KLH)
Irrelevant peptide-BSA; KLH/Alum i.d. (10 μg peptide)
  titer, p irrelevant: no titer
Irrelevant peptide-BSA; KLH/Gerbu s.c. (30 μg peptide)
  titer, p irrelevant: no titer

## C-FGFPEHLLVDFLQSL (N-terminal Cys) [reference compound]
[1]
  inhibition in in vitro competition ELISA, mAb “Frida” (in words): inhibiting in vitro

## p4184-KLH: F3-18 C-DFLRTLT coupled to KLH (CDFLRTLT; also: coupled to KLH)
Irrelevant peptide-BSA; KLH/Alum i.d. (10 μg peptide)
  titer, p irrelevant: no titer

## C-SANPRDFLETLF (N-terminal Cys; CETP mimotope) [P12-19]
Original epitope (p4073)
  antibody response to the original CETP epitope (in words): induced an immune response to the original CETP epitope in wt mice and in rabbits

## C-DFGFPSHLIIDWLQSLS (N-terminal cysteine; CETP mimotope) [p4642]
[1]; coat 1 μM 4073 peptide
  inhibition ELISA signal, first value column: 0.171
  inhibition ELISA signal, second value column: 0.082

## C-FPEHLLVDFLQSL (N-terminal Cys) [reference compound]
[1]
  inhibition in in vitro competition ELISA, mAb “Frida” (in words): not inhibiting in vitro

## C-FGFPAHVSIDWLQSLS (N-terminal cysteine; CETP mimotope) [Fr12/3/84 ext2]
[1]
  inhibition in in vitro competition ELISA, mAb “Frida” (in words): significant inhibition; also recorded: Strongly inhibiting

## C-RMFPESFLDTLW (N-terminal Cys; CETP mimotope) [P12-21]
Original epitope (p4073)
  antibody response to the original CETP epitope (in words): induced an immune response to the original CETP epitope in wt mice and in rabbits

## C-PSHLIIDWLQ (N-terminal cysteine; CETP mimotope) [p4819]
[1]; coat 1 μM 4073 peptide
  inhibition ELISA signal, first value column: 2.226
  inhibition ELISA signal, second value column: 2.158

## C-FGFPEHVFIDWLQSLS (N-terminal cysteine; CETP mimotope) [p4477]
[1]; [2]
  inhibition ELISA signal, high: 0.116
  inhibition ELISA signal, low: 0.808

## C-FGFPQHLFTDWLQSLS (N-terminal cysteine; CETP mimotope) [p4481]
[1]; [2]
  inhibition ELISA signal, high: 0.156
  inhibition ELISA signal, low: 0.551

## C-AAAPAHLLVDAAQAAA (N-terminal Cys; CETP mimotope) [p4437]
[1]; FIG. 18c, coat 1 μM 4073
  inhibition ELISA signal, high: 1.674
  inhibition ELISA signal, low: 1.84

## C-FGFPSHLIIEWLQSLS (N-terminal Cys; CETP mimotope) [p4433]
[1]; FIG. 18c, coat 1 μM 4073
  inhibition ELISA signal, high: 0.672
  inhibition ELISA signal, low: 1.114

## C-FGFPSHIIIDWLQSLS (N-terminal Cys; CETP mimotope) [p4432]
[1]; FIG. 18c, coat 1 μM 4073
  inhibition ELISA signal, high: 0.096
  inhibition ELISA signal, low: 0.635

## p4188-KLH: F3-38 C-GFLDSLM coupled to KLH (CGFLDSLM; also: coupled to KLH)
Irrelevant peptide-BSA; Alum s.c. (30 μg peptide)
  titer, p irrelevant: no titer
Irrelevant peptide-BSA; KLH/Alum i.d. (10 μg peptide)
  titer, p irrelevant: no titer

## C-PEHLLVDFLQSLS (N-terminal Cys) [reference compound]
[1]
  inhibition in in vitro competition ELISA, mAb “Frida” (in words): evtl. slightly inhibiting in vitro
